Measured values published in ChEMBL document CHEMBL4673334, “In Vivo Biological Evaluation of a Synthetic Royleanone Derivative as a Promising Fast-Acting Trypanocidal Agent by Inducing Mitochondrial-Dependent Necrosis” (J Nat Prod, 2020).
Calls of active or inactive are those of the source. No cut-off for these calls is given here.

Assays:
Trypanosoma cruzi [1] = test: Antitrypanosomal activity against Trypanosoma cruzi MHOM/Pe/2011/Arequipa(DTU V) epimastigote form assessed as disruption of D-lactate level at IC25 concentration incubated for 72 hrs by NMR spectrometric analysis; type: functional, organism-based
Trypanosoma cruzi [2] = test: Inhibition of nucleic acid level in Trypanosoma cruzi MHOM/Pe/2011/Arequipa(DTU V) epimastigote form at IC25 concentration after 72 hrs by Rho (FITC-A) staining based flow cytometric analysis; type: functional
Vero = test: Cytotoxicity against African green monkey Vero cells assessed as reduction in cell viability after 48 hrs by resazurin dye based assay; conditions: Chlorocebus sabaeus
[3] = Toxicity in BALB/c mouse infected with Trypanosomal Trypanosoma cruzi MHOM/Pe/2011/Arequipa(DTU V) assessed as effect on […] level at 20 mg/kg, po administered for 5 days starting at 100 days post infection and measured after 2 days post treatment; type: organism-based; conditions: in vivo, 120 h, time 5 day
[4] = Toxicity in BALB/c mouse infected with Trypanosomal Trypanosoma cruzi MHOM/Pe/2011/Arequipa(DTU V) assessed as effect on total bilirubin level at 20 mg/kg, po administered for 5 days starting at 9 days post infection and measured after 2 days post treatment; type: organism-based; conditions: in vivo, 120 h, time 5 day
[5] = Selectivity index, ratio of IC50 for cytotoxicity against African green monkey Vero cells to IC50 for antitrypanosomal activity against Trypanosoma cruzi MHOM/Pe/2011/Arequipa(DTU V) epimastigote form; type: toxicity, cell-based; conditions: read-out: Ratio IC50
Trypanosoma cruzi [6] = test: Antitrypanosomal activity against Trypanosoma cruzi MHOM/Pe/2011/Arequipa(DTU V) amastigote form infected in BALB/c mouse assessed as parasite free organ tissue ratio at 20 mg/kg, po administered for 5 days starting at 100 days post infection and measured up to 145 days post infection by PCR analysis relative to control; type: functional; conditions: time 5 day
[7] = Toxicity in BALB/c mouse infected with Trypanosomal Trypanosoma cruzi MHOM/Pe/2011/Arequipa(DTU V) assessed as effect on uric acid level at 20 mg/kg, po administered for 5 days starting at 100 days post infection and measured after 2 days post treatment; type: organism-based; conditions: in vivo, 120 h, time 5 day
[8] = Selectivity index, ratio of IC50 for cytotoxicity against African green monkey Vero cells to IC50 for antitrypanosomal activity against Trypanosoma cruzi MHOM/Pe/2011/Arequipa(DTU V) blood stream trypomastigote form; type: toxicity, cell-based; conditions: read-out: Ratio IC50
Trypanosoma cruzi [9] = test: Antitrypanosomal activity against Trypanosoma cruzi IRHOD/CO/2008/SN3 (DTU I) amastigote form infected in Vero cells assessed as parasite growth inhibition incubated for 72 hrs by Giemsa-staining based assay; type: functional, organism-based
Trypanosoma cruzi [10] = test: Antitrypanosomal activity against Trypanosoma cruzi MHOM/Pe/2011/Arequipa(DTU V) amastigote form infected in BALB/c mouse assessed as reduction in parasitaemia at 20 mg/kg, po for 5 days and measured after 55 days post infection; type: functional, organism-based; conditions: time 5.0 day
Trypanosoma cruzi [11] = test: Antitrypanosomal activity against Trypanosoma cruzi MHOM/Pe/2011/Arequipa(DTU V) epimastigote form assessed as parasite growth inhibition incubated for 48 hrs by resazurin dye based assay; type: functional, organism-based
[12] = Toxicity in BALB/c mouse infected with Trypanosomal Trypanosoma cruzi MHOM/Pe/2011/Arequipa(DTU V) assessed as effect on total bilirubin level at 20 mg/kg, po administered for 5 days starting at 100 days post infection and measured after 2 days post treatment; type: organism-based; conditions: in vivo, 120 h, time 5 day
[13] = Toxicity in BALB/c mouse infected with Trypanosomal Trypanosoma cruzi MHOM/Pe/2011/Arequipa(DTU V) assessed as effect on urea level at 20 mg/kg, po administered for 5 days starting at 100 days post infection and measured after 2 days post treatment; type: organism-based; conditions: in vivo, 120 h, time 5 day
[14] = Toxicity in BALB/c mouse infected with Trypanosomal Trypanosoma cruzi MHOM/Pe/2011/Arequipa(DTU V) assessed as effect on CK-MB level at 20 mg/kg, po administered for 5 days starting at 100 days post infection and measured after 2 days post treatment; type: organism-based; conditions: in vivo, 120 h, time 5 day
Trypanosoma cruzi [15] = test: Antitrypanosomal activity against Trypanosoma cruzi TINF/CH/1956/Tulahuen (DTU VI) epimastigote form assessed as parasite growth inhibition incubated for 48 hrs by resazurin dye based assay; type: functional, organism-based
[16] = Toxicity in BALB/c mouse infected with Trypanosomal Trypanosoma cruzi MHOM/Pe/2011/Arequipa(DTU V) assessed as reduction in weight at 20 mg/kg, po administered for 5 days starting at 9 days post infection and measured up to 145 days post infection; type: organism-based; conditions: in vivo, 120 h, time 5 day
[17] = Toxicity in BALB/c mouse infected with Trypanosomal Trypanosoma cruzi MHOM/Pe/2011/Arequipa(DTU V) assessed as effect on ALP level at 20 mg/kg, po administered for 5 days starting at 100 days post infection and measured after 2 days post treatment; type: organism-based; conditions: in vivo, 120 h, time 5 day
[18] = Toxicity in BALB/c mouse infected with Trypanosomal Trypanosoma cruzi MHOM/Pe/2011/Arequipa(DTU V) assessed as effect on LDH level at 20 mg/kg, po administered for 5 days starting at 9 days post infection and measured after 2 days post treatment; type: organism-based; conditions: in vivo, 120 h, time 5 day
Trypanosoma cruzi [19] = test: Antitrypanosomal activity against Trypanosoma cruzi TINF/CH/1956/Tulahuen (DTU VI) amastigote form infected in Vero cells assessed as parasite growth inhibition incubated for 72 hrs by Giemsa-staining based assay; type: functional, organism-based
Trypanosoma cruzi [20] = test: Antitrypanosomal activity against Trypanosoma cruzi MHOM/Pe/2011/Arequipa(DTU V) amastigote form infected in BALB/c mouse assessed as parasite free organ tissue ratio at 20 mg/kg, po administered for 5 days starting at 9 days post infection and measured up to 145 days post infection by PCR analysis relative to control; type: functional; conditions: time 5 day
[21] = Selectivity index, ratio of IC50 for cytotoxicity against African green monkey Vero cells to IC50 for antitrypanosomal activity against Trypanosoma cruzi TINF/CH/1956/Tulahuen (DTU VI) amastigote form infected in Vero cells; type: toxicity, cell-based; conditions: read-out: Ratio IC50
[22] = Toxicity in BALB/c mouse infected with Trypanosomal Trypanosoma cruzi MHOM/Pe/2011/Arequipa(DTU V) assessed as reduction in survival at 20 mg/kg, po administered for 5 days starting at 9 days post infection and measured up to 145 days post infection; type: organism-based; conditions: in vivo, 120 h, time 5 day
[23] = target: Superoxide dismutase [Cu-Zn] (Homo sapiens, UniProt P00441); test: Inhibition of human erythrocytes CuZn-SOD by UV-VIS spectrophotometric method; design: species or system Erythrocyte
[24] = Toxicity in BALB/c mouse infected with Trypanosomal Trypanosoma cruzi MHOM/Pe/2011/Arequipa(DTU V) assessed as effect on ALT/GPT level at 20 mg/kg, po administered for 5 days starting at 9 days post infection and measured after 2 days post treatment; type: organism-based; conditions: in vivo, 120 h, time 5 day
[25] = Selectivity index, ratio of IC50 for cytotoxicity against African green monkey Vero cells to IC50 for antitrypanosomal activity against Trypanosoma cruzi MHOM/Pe/2011/Arequipa(DTU V) amastigote form infected in Vero cells; type: toxicity, cell-based; conditions: read-out: Ratio IC50
Trypanosoma cruzi [26] = test: Antitrypanosomal activity against Trypanosoma cruzi MHOM/Pe/2011/Arequipa(DTU V) epimastigote form assessed as disruption of succinic acid level at IC25 concentration incubated for 72 hrs by NMR spectrometric analysis; type: functional, organism-based
Trypanosoma cruzi [27] = test: Antitrypanosomal activity against Trypanosoma cruzi MHOM/Pe/2011/Arequipa(DTU V) amastigote form infected in BALB/c mouse assessed as reduction in parasite growth at 20 mg/kg, po administered for 5 days starting at 100 days post infection and measured up to 106 days post infection by ELISA assay; type: functional, organism-based; conditions: time 5.0 day

Sequence of Superoxide dismutase [Cu-Zn] (P00441 whole entry): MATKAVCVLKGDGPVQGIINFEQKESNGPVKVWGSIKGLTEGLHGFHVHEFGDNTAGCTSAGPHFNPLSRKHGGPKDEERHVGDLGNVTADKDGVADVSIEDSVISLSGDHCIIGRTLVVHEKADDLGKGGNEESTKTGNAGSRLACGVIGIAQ

**Q.** For CC(C)c1cc(C=O)c([C@@]2(C)CCCC(C)(C)C2=O)cc1O, which Activity (Trypanosoma cruzi [1]) is on record?
**A.** The Activity was “inactive”.

**Q.** What about the inhibition (Trypanosoma cruzi [2]) of the same compound?
**A.** The inhibition was 36.4%.

**Q.** And the IC50 (Vero)?
**A.** Its IC50 is 624 µM.

**Q.** And the Activity [3]?
**A.** Its Activity is “Non-Toxic”.

**Q.** And the Activity [4]?
**A.** The Activity was “Non-Toxic”.

**Q.** And the selectivity ratio [5]?
**A.** Its selectivity ratio is > 15.

**Q.** And the Activity (Trypanosoma cruzi [6])?
**A.** Its Activity is 42.9%.

**Q.** And the Activity [7]?
**A.** Its Activity is “Non-Toxic”.

**Q.** What about the selectivity ratio [8] of the same compound?
**A.** Its selectivity ratio is > 40.

**Q.** And the IC50 (Trypanosoma cruzi [9])?
**A.** Its IC50 is 7.2 µM.

**Q.** What about the Activity (Trypanosoma cruzi [10]) of the same compound?
**A.** The Activity was “Active”.

**Q.** And the IC50 (Trypanosoma cruzi [11])?
**A.** Its IC50 is 18.5 µM.

**Q.** And the Activity [12]?
**A.** The Activity was “Non-Toxic”.

**Q.** What about the Activity [13] of the same compound?
**A.** The Activity was “Non-Toxic”.

**Q.** And the Activity [14]?
**A.** The Activity was “Non-Toxic”.

**Q.** And the IC50 (Trypanosoma cruzi [15])?
**A.** The IC50 was 13.5 µM.

**Q.** What about the Activity [16] of the same compound?
**A.** Its Activity is “Non-Toxic”.

**Q.** What about the Activity [17] of the same compound?
**A.** The Activity was “Non-Toxic”.

**Q.** What about the Activity [18] of the same compound?
**A.** The Activity was “Non-Toxic”.

**Q.** What about the IC50 (Trypanosoma cruzi [19]) of the same compound?
**A.** The IC50 was 8.8 µM.

**Q.** What about the Activity (Trypanosoma cruzi [20]) of the same compound?
**A.** The Activity was 28.5%.

**Q.** What about the selectivity ratio [21] of the same compound?
**A.** Its selectivity ratio is > 40.

**Q.** What about the Activity [22] of the same compound?
**A.** The Activity was “Non-Toxic”.

**Q.** And the IC50 [23]?
**A.** The IC50 was > 100 µM.

**Q.** And the Activity [24]?
**A.** Its Activity is “Non-Toxic”.

**Q.** And the selectivity ratio [25]?
**A.** Its selectivity ratio is > 40.

**Q.** What about the Activity (Trypanosoma cruzi [26]) of the same compound?
**A.** Its Activity is “Active”.

**Q.** What does the source list for COC(=O)[C@]1(C)CCC[C@]2(C)C3=C(C=C[C@@H]12)C(=O)C(C(C)C)=CC3=O?
**A.** Activity (Trypanosoma cruzi [1]): inactive; inhibition (Trypanosoma cruzi [2]): 50.4%; IC50 (Vero): 72.2 µM; Activity [3]: Non-Toxic; Activity [4]: Non-Toxic; selectivity ratio [5]: > 15; Activity (Trypanosoma cruzi [6]): 57.1%; Activity [7]: Non-Toxic; selectivity ratio [8]: > 40; IC50 (Trypanosoma cruzi [9]): 5.4 µM; Activity (Trypanosoma cruzi [10]): Active; IC50 (Trypanosoma cruzi [11]): 1.4 µM; Activity [12]: Non-Toxic; Activity [13]: Non-Toxic; Activity [14]: Non-Toxic; IC50 (Trypanosoma cruzi [15]): 2.1 µM; Activity [16]: Non-Toxic; Activity [17]: Non-Toxic; Activity [18]: Non-Toxic; IC50 (Trypanosoma cruzi [19]): 7.1 µM; Activity (Trypanosoma cruzi [20]): 57.1%; selectivity ratio [21]: > 40; Activity (Trypanosoma cruzi [27]): Active; Activity [22]: Non-Toxic; IC50 [23]: > 100 µM; Activity [24]: Non-Toxic; selectivity ratio [25]: > 40; Activity (Trypanosoma cruzi [26]): Active
